# Reference: patent US20040038367A1, “Novel xyloglucan oligosaccharide-degrading enzyme, polynucleotide encoding the enzyme, and method of preparing the enzyme” (NATIONAL INSTITUTE OF ADVANCED INDUSTRIAL SCIENCE AND …, priority 2002, published 2004)
# Target: T1, xyloglucan oligosaccharide-degrading enzyme (Geotrichum sp., UniProt Q8J0D2)
# T1 construct: made in house; host or cells: Geotrichum sp. strain M128 (natural producer; enzyme purified, not recombinant)
# Assay: Inhibition of the enzyme activity by metal ions
# Format: biochemical, Geotrichum sp. strain M128
# Conditions: concentration of 1 mM or more
smiles,measurement,value
[Hg+2] [mercury ion],inhibition of the activity of the enzyme,strongly inhibited
